Results on four compounds are retold here after patent US9181305B2, “Exendin-4 peptide analogues” (SANOFI, priority 2012, dated 2015).

Data set [1] has as its target T1, human glucagon receptor (hGlucagon R) (Homo sapiens, UniProt P47871).
T1 construct: expressed in transfected cells; host or cells: HEK-293
The data set can be described thus: cAMP response (HTRF) of HEK-293 cells stably expressing human glucagon receptor. The data set is classed as cell-based. Particulars: read-out: EC50 hGlucagonR. Here is the method:
cAMP content of cells was determined using a kit from Cisbio Corp. (cat. no. 62AM4PEC) based on HTRF (Homogenous Time Resolved Fluorescence). For preparation, cells were split into T175 culture flasks and grown overnight to near confluency in medium (DMEM/10% FBS). Medium was then removed and cells washed with PBS lacking calcium and magnesium, followed by proteinase treatment with accutase (Sigma-Aldrich cat. no. A6964). Detached cells were washed and resuspended in assay buffer (1×HBSS; 20 mM HEPES, 0.1% BSA, 2 mM IBMX) and cellular density determined. […] For measurement, 25 μl of test compound in assay buffer was added to the wells, followed by incubation for 30 minutes at room temperature.
(Time-resolved FRET reads energy transfer from a long-lived donor to a nearby acceptor.)

A further data set can be described thus: physchem. The data set is classed as physicochemical. As to the method:
Prior to the testing of solubility and stability of a peptide batch, its content was determined. Therefore, two parameters were investigated, its purity (HPLC-UV) and the amount of salt load of the batch (ion chromatography). Since synthesized peptides contain primarily trifluoracetate anions, only anion chromatography was performed. The content was then calculated based on the assumption that peptide-related impurities are detected at the same UV-absorption rate as the target peptide, as well as that cations are not present in the sample.
Therefore, solutions from solid samples were prepared in different buffer systems with a concentration of 1.0 mg/mL compound based on the previously determined content. HPLC-UV was performed after 2 h of gentle agitation from the supernatant, which was obtained by 20 min of centrifugation at 4000 rpm. […] This analysis also served as t0 for the stability testing.
Instrument: Agilent 1100, column: X-Bridge C18 3.5 μm 2.1×150 mm (Waters), eluent: A: H20+500 ppm TFA/B: Methanol, flow: 0.55 ml/min, gradient: 0-5 min: 10-60% B; 5-15 min: 60-99% B; detection: 214 nm.

In data set [2] the target is T2, human GLP-1 receptor (hGLP-1 R) (Homo sapiens, UniProt P43220).
T2 construct: expressed in transfected cells; host or cells: HEK-293
T2 sequence (P43220 24-463): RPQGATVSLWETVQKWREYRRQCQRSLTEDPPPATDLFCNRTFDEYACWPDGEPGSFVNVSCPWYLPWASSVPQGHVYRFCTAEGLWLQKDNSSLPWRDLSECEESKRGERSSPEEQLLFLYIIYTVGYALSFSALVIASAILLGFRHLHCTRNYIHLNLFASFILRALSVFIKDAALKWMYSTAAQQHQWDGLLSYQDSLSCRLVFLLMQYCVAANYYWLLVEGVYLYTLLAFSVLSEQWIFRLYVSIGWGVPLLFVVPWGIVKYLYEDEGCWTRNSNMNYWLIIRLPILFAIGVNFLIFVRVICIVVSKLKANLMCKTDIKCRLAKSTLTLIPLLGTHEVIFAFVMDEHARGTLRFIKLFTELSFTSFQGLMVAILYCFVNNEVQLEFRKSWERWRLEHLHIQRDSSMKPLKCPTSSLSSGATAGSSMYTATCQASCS
The data set is described as follows: cAMP response (HTRF) of HEK-293 cells stably expressing human GLP-1 receptor. The format is cell-based. Particulars: HEK-293 cells expressing human GLP-1 receptor, cAMP formation. Put shortly:
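Detached HEK-293 cells stably expressing the receptor were suspended in HBSS with 20 mM HEPES, 0.1% BSA and 2 mM IBMX. Test compound was added for 30 min at room temperature, and cellular cAMP was quantified by HTRF.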

In brackets after ≈: the same amount, converted by molar mass. *1 amine or outer side, *2 acyl side, *3 side chain or, on linkers, in order; H or OH if unused. Where a SMILES comes first, the peptide text is derived from it. Side-chain parts run from the residue outwards. [ ]: non-standard residue; d: D form. The star is where a group is joined. γGlu = O=C(O)[C@H](CCC(=O)[*:2])N[*:1]; Palmitoyl = CCCCCCCCCCCCCCCC(=O)* A value given as a limit tells only on which side of the number the result lay.

T1 sequence (P47871 26-477): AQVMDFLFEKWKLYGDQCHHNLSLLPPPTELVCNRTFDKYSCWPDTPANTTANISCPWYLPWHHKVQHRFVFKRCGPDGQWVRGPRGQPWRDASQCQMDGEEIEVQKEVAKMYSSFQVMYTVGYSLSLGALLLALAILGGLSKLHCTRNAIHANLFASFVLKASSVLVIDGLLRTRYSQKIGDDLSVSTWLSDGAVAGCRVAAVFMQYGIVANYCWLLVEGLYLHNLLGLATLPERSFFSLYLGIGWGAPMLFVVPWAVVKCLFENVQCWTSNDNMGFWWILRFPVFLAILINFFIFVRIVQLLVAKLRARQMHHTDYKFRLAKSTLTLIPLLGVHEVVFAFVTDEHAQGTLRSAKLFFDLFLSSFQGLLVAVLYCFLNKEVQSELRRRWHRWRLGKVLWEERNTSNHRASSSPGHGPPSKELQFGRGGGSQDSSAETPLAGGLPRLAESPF

By EC50 is commonly meant the midpoint of the concentration-response curve. For `CC[C@H](C)[C@H](NC(=O)[C@H](Cc1ccccc1)NC(=O)[C@H](CC(=O)O)NC(=O)[C@H](CCC(N)=O)NC(=O)[C@H](C)NC(=O)[C@H](CCCNC(=N)N)NC(=O)[C@H](CCCNC(=N)N)NC(=O)[C@H](CCC(=O)O)NC(=O)[C@H](CC(=O)O)NC(=O)[C@H](CCSC)NC(=O)[C@H](CCC(N)=O)NC(=O)[C@H](CCCCN)NC(=O)[C@H](CO)NC(=O)[C@H](CC(C)C)NC(=O)[C@H](CC(=O)O)NC(=O)[C@H](CO)NC(=O)[C@@H](NC(=O)[C@H](Cc1ccccc1)NC(=O)[C@@H](NC(=O)CNC(=O)[C@H](CCC(N)=O)NC(=O)[C@H](CO)NC(=O)[C@@H](N)Cc1c[nH]cn1)[C@@H](C)O)[C@@H](C)O)C(=O)N[C@@H](CCC(=O)O)C(=O)N[C@@H](Cc1c[nH]c2ccccc12)C(=O)N[C@@H](CC(C)C)C(=O)N[C@@H](CCCCN)C(=O)N[C@@H](CC(N)=O)C(=O)NCC(=O)NCC(=O)N1CCC[C@H]1C(=O)N[C@@H](CO)C(=O)N[C@@H](CO)C(=O)NCC(=O)N[C@@H](C)C(=O)N1CCC[C@H]1C(=O)N1CCC[C@H]1C(=O)N1CCC[C@H]1C(=O)N[C@@H](CO)C(N)=O` [(5)] (H-HSQGTFTSDLSKQMDERRAQDFIEWLKNGGPSSGAPPPS-NH2), the half-maximal effective concentration (EC50) in data set [1] worked out at 0.067 nM. Still for that read-out and setting: next, `CCCCCCCCCCCCCCCC(=O)N[C@@H](CCC(=O)NCCCC[C@H](NC(=O)[C@H](CO)NC(=O)[C@@H]1CCCN1C(=O)[C@@H]1CCCN1C(=O)[C@@H]1CCCN1C(=O)[C@H](C)NC(=O)CNC(=O)[C@H](CO)NC(=O)[C@H](CO)NC(=O)[C@@H]1CCCN1C(=O)CNC(=O)[C@H](C)NC(=O)[C@H](CC(N)=O)NC(=O)[C@H](CCCCN)NC(=O)[C@H](CC(C)C)NC(=O)[C@H](Cc1c[nH]c2ccccc12)NC(=O)[C@H](CCC(=O)O)NC(=O)[C@@H](NC(=O)[C@H](Cc1ccccc1)NC(=O)[C@H](CC(=O)O)NC(=O)[C@H](CCC(N)=O)NC(=O)[C@H](C)NC(=O)[C@H](CCCNC(=N)N)NC(=O)[C@H](CCCNC(=N)N)NC(=O)[C@H](CO)NC(=O)[C@H](CCC(=O)O)NC(=O)[C@H](CCSC)NC(=O)[C@H](CCC(N)=O)NC(=O)[C@H](CCCCN)NC(=O)[C@H](CO)NC(=O)[C@H](CC(C)C)NC(=O)[C@H](CC(=O)O)NC(=O)[C@H](CO)NC(=O)[C@@H](NC(=O)[C@H](Cc1ccccc1)NC(=O)[C@@H](NC(=O)CNC(=O)[C@H](CCC(N)=O)NC(=O)[C@@H](CO)NC(=O)[C@@H](N)Cc1c[nH]cn1)[C@@H](C)O)[C@@H](C)O)[C@@H](C)CC)C(N)=O)C(=O)O` [(64)] (H-H[dS]QGTFTSDLSKQMESRRAQDFIEWLKNAGPSSGAPPPSK([γGlu-Palmitoyl])-NH2): 0.067 nM; `CCCCCCCCCCCCCCCC(=O)N[C@@H](CCC(=O)NCCCC[C@H](NC(=O)[C@H](CO)NC(=O)[C@@H]1CCCN1C(=O)[C@@H]1CCCN1C(=O)[C@@H]1CCCN1C(=O)[C@H](C)NC(=O)CNC(=O)[C@H](CO)NC(=O)[C@H](CO)NC(=O)[C@@H]1CCCN1C(=O)CNC(=O)[C@@H](NC(=O)[C@H](CC(N)=O)NC(=O)[C@H](CCCCN)NC(=O)[C@H](CC(C)C)NC(=O)[C@H](Cc1c[nH]c2ccccc12)NC(=O)[C@H](CCC(=O)O)NC(=O)[C@@H](NC(=O)[C@H](Cc1ccccc1)NC(=O)[C@H](CC(=O)O)NC(=O)[C@H](CCC(N)=O)NC(=O)[C@H](C)NC(=O)[C@H](CCCNC(=N)N)NC(=O)[C@H](CCCNC(=N)N)NC(=O)[C@H](CO)NC(=O)[C@H](CC(=O)O)NC(=O)[C@H](CCSC)NC(=O)[C@H](CCC(N)=O)NC(=O)[C@H](CCCCN)NC(=O)[C@H](CO)NC(=O)[C@H](CC(C)C)NC(=O)[C@H](CC(=O)O)NC(=O)[C@H](CO)NC(=O)[C@@H](NC(=O)[C@H](Cc1ccccc1)NC(=O)[C@@H](NC(=O)CNC(=O)[C@H](CCC(N)=O)NC(=O)[C@@H](CO)NC(=O)[C@@H](N)Cc1c[nH]cn1)[C@@H](C)O)[C@@H](C)O)[C@@H](C)CC)[C@@H](C)O)C(N)=O)C(=O)O` [(71)]: 0.0019 nM.

A word on the solubility: it is the concentration that dissolves in the medium under given conditions. Take `CCCCCCCCCCCCCCCC(=O)N[C@@H](CCC(=O)NCCCC[C@H](NC(=O)[C@H](CO)NC(=O)[C@@H]1CCCN1C(=O)[C@@H]1CCCN1C(=O)[C@@H]1CCCN1C(=O)[C@H](C)NC(=O)CNC(=O)[C@H](CO)NC(=O)[C@H](CO)NC(=O)[C@@H]1CCCN1C(=O)CNC(=O)CNC(=O)[C@H](C)NC(=O)[C@H](CCCCN)NC(=O)[C@H](CC(C)C)NC(=O)[C@H](Cc1c[nH]c2ccccc12)NC(=O)[C@H](CCC(=O)O)NC(=O)[C@@H](NC(=O)[C@H](Cc1ccccc1)NC(=O)[C@H](CC(C)C)NC(=O)[C@H](CCC(N)=O)NC(=O)[C@H](C)NC(=O)[C@H](C)NC(=O)[C@H](CCCNC(=N)N)NC(=O)[C@H](CO)NC(=O)[C@H](CCC(=O)O)NC(=O)[C@H](CCSC)NC(=O)[C@H](CCC(N)=O)NC(=O)[C@H](CCCCN)NC(=O)[C@H](CO)NC(=O)[C@H](CC(C)C)NC(=O)[C@H](CC(=O)O)NC(=O)[C@H](CO)NC(=O)[C@@H](NC(=O)[C@H](Cc1ccccc1)NC(=O)[C@@H](NC(=O)CNC(=O)[C@H](CCC(N)=O)NC(=O)[C@@H](CO)NC(=O)[C@@H](N)Cc1c[nH]cn1)[C@@H](C)O)[C@@H](C)O)[C@@H](C)CC)C(N)=O)C(=O)O` [(79)] (H-H[dS]QGTFTSDLSKQMESRAAQLFIEWLKAGGPSSGAPPPSK([γGlu-Palmitoyl])-NH2): the results for the solubility at 2 h in “physchem” (pH 4.5) and in “physchem” (pH 7.4) were above 1000 µg/mL and 666 µg/mL (≈ 145 µM), respectively. Further, the 50% effective concentration (EC50) in data set [2] turned out to be 0.0037 nM; in data set [1], 0.195 nM.
